Data: ChEMBL document CHEMBL5096160, “Targeting SHP2 as a therapeutic strategy for inflammatory diseases” (Eur J Med Chem, 2021)
In brackets after ≈: the same amount, converted by molar mass.

Tests used:
BaF3 = assay: Cytotoxicity against mouse BaF3 cells assessed as inhibition of cell proliferation incubated for 48 hrs by MTT assay; type: functional, cell-based; conditions: BaF3, 48 h
[1] = Cytotoxicity against human LN-444 cells assessed as reduction in cell viability incubated for 72 hrs by WST-1 assay; type: functional, cell-based; conditions: LN-444, 72 h
Capan-2 = assay: Cytotoxicity against human Capan-2 cells harbouring K-ras mutant assessed as reduction in cell viability incubated for 144 hrs; type: functional, cell-based; conditions: Capan-2, 144 h
[2] = biological target: T1, Tyrosine-protein phosphatase non-receptor type 11 (Homo sapiens, UniProt Q06124); assay: Inhibition of human recombinant SHP2 expressed in Escherichia coli using p-nitrophenyl phosphate as substrate preincubated for 2 mins followed by substrate addition by microplate spectrophotometer analysis
T1 sequence (Q06124 whole entry): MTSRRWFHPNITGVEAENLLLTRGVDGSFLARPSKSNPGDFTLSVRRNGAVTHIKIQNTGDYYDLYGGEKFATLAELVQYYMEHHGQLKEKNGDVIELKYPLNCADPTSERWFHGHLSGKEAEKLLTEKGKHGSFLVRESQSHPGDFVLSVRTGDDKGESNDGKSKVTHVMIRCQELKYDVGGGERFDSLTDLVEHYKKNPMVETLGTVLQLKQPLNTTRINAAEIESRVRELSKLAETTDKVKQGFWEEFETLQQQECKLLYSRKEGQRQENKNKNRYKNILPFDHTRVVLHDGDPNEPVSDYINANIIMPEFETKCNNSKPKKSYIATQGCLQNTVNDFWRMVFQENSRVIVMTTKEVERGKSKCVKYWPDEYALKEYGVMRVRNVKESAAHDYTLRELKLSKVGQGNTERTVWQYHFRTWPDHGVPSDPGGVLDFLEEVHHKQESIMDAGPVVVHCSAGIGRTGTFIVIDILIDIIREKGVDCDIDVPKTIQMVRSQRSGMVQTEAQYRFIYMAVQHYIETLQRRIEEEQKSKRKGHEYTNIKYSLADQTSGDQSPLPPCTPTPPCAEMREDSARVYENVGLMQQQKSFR

[3] = biological target: T1, Tyrosine-protein phosphatase non-receptor type 11; assay: Inhibition of human SHP2 catalytic domain expressed in Escherichia coli using p-nitrophenyl phosphate as substrate by spectrophotometric method
[4] = biological target: T1, Tyrosine-protein phosphatase non-receptor type 11; assay: Inhibition of recombinant human GST-tagged SHP2 expressed in Escherichia coli BL21 incubated for 30 mins by DiFMUP fluorescence assay
A549 = assay: Antiproliferative activity against human A549 cells assessed as inhibition of cell growth measured after 72 hrs by CCK-8 assay; type: functional, cell-based; conditions: A549, 72 h
[5] = biological target: T1, Tyrosine-protein phosphatase non-receptor type 11; assay: Inhibition of N-terminal 6His-tagged full-length H2N-VE(pY)LDLDLD(PEG8)RVD(pY)VVVDQQ-amide-activated SHP2 (247 to 529 residues) (unknown origin) expressed in Escherichia coli BL21 (DE3) using DiFMUP as substrate preincubated for 10 to 30 mins with activating peptide prior to compound addition for 30 mins followed by substrate addition and measured for 6 mins by fluorescence based assay
SW1463 = assay: Cytotoxicity against human SW1463 cells assessed as inhibition of cell growth incubated for 120 hrs by MTT assay; type: functional, cell-based; conditions: SW1463, 120 h
[6] = biological target: T2, Tyrosine-protein phosphatase non-receptor type 11 (Homo sapiens) (UniProt Q06124); assay: Inhibition of SHP2 in human LS180 cells; type: cell-based
T2 sequence (whole entry): T1 sequence (Q06124 whole entry)

[7] = biological target: T1, Tyrosine-protein phosphatase non-receptor type 11; assay: Inhibition of N-terminal hexaHis-tagged catalytic domain of human SHP2 (248 to 527 residues) expressed as Escherichia coli Rosetta (DE3) using DiFMUP as substrate preincubated for 1 hr followed by substrate addition by fluorescence based analysis
[8] = biological target: T1, Tyrosine-protein phosphatase non-receptor type 11; assay: Inhibition of SHP2 (unknown origin) using EFpYAEVGRSPPDPAK incubated for 0.5 hrs by malachite green reagent based assay
[9] = biological target: Tyrosine-protein phosphatase non-receptor type 6 (Homo sapiens) (UniProt P29350); assay: Inhibition of SHP1 (unknown origin) using EFpYAEVGRSPPDPAK incubated for 0.5 hrs by malachite green reagent assay
Tyrosine-protein phosphatase non-receptor type 6 (Homo sapiens), sequence (P29350 whole entry): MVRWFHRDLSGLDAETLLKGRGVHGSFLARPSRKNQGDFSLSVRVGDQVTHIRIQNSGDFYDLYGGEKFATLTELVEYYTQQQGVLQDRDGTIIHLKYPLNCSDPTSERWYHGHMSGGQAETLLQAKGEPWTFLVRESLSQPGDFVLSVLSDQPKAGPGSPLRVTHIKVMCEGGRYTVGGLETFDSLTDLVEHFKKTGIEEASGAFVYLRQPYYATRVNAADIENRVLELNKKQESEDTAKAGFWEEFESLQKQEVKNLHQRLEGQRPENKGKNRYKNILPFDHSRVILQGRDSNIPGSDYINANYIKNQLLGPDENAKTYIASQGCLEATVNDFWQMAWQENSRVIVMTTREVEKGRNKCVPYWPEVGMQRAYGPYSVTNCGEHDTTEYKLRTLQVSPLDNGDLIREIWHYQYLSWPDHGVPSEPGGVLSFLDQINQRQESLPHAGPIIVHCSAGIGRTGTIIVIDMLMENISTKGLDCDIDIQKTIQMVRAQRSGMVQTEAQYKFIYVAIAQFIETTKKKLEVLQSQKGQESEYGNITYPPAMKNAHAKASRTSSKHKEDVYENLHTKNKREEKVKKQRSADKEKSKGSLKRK

[10] = biological target: T1, Tyrosine-protein phosphatase non-receptor type 11; assay: Inhibition of GST-tagged SHP2 (unknown origin) using 8-difluoro-4-methylumbelliferyl phosphate as a substrate measured after 30 mins by fluorescence based analysis
[11] = biological target: T2, Tyrosine-protein phosphatase non-receptor type 11 (Homo sapiens); assay: Inhibition of recombinant SHP2 (unknown origin)
[12] = biological target: Tyrosine-protein phosphatase non-receptor type 11 (Mus musculus, UniProt P35235); assay: Inhibition of SHP2 in mouse EMT6 cells harboring SOS1 mutation; type: cell-based
Tyrosine-protein phosphatase non-receptor type 11 (Mus musculus, UniProt P35235), sequence (P35235 2-593 limits assumed, change not shown): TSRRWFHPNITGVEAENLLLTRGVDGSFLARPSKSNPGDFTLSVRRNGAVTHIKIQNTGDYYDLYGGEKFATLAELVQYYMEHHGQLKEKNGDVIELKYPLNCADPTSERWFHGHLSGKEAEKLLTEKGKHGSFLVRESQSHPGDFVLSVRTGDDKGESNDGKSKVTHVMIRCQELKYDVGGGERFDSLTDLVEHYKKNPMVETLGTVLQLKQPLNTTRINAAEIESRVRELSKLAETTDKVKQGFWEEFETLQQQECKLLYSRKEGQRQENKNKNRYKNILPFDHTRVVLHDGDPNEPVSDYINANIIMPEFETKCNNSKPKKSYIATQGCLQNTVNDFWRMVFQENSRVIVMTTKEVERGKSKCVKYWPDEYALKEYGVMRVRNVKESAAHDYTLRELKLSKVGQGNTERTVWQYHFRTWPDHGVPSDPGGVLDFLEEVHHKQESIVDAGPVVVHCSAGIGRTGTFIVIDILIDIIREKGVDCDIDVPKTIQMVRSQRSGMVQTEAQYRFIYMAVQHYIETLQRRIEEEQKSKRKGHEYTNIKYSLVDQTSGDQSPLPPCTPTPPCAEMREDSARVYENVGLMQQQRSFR

## CC1(N)CCN(c2cnc(-c3cccc(Cl)c3Cl)c(N)n2)CC1
BaF3
  IC50: 19.9 µM
[1]
  IC50: 38 µM
Capan-2
  IC50: 15.7 µM

## CCOC(=O)c1sc(-c2ccc(OC)cc2)nc1COc1ccc(Cl)cc1
[2]
  IC50: 990 nM

## CCCCCCCCCC[C@@H](C)C(=O)C1=C2C3=COC(C)=CC3=CC(=O)[C@]2(C)OC1=O
[3]
  IC50: 700 nM

## CC(=O)O[C@H]1CC[C@]2(C)c3c(O)c4c(c(O)c3C(=O)CC2C1(C)C)C[C@H](C)O4 (some centres undefined)
[4]
  IC50: 8.79 µM
A549
  IC50: 10.8 µM

## N[C@@H]1COCC12CCN(c1cnc3c(Sc4cccc(Cl)c4Cl)n[nH]c3n1)CC2
[5]
  IC50: 2.1 nM
SW1463
  IC50: 590 nM
[6]
  MIC: 10 µM (≈ 4.51 µg/mL)

## CCCCCCCCCCCC(=O)C1=C2C3=COC(C)=CC3=CC(=O)[C@]2(C)OC1=O
[3]
  IC50: 800 nM

## O=C1/C(=N/Nc2ccc(S(=O)(=O)O)cc2)C(c2ccc([N+](=O)[O-])cc2)=NN1c1ccc([N+](=O)[O-])cc1
[7]
  IC50: 71 nM

## NCC1CCN(c2ncc(-c3cccc(Cl)c3Cl)cc2CO)CC1
[8]
  IC50: 1360 nM
[9]
  IC5: 100 µM
BaF3
  IC50: 2.35 µM

## C/C(=C\[C@H](O)C[C@@H](C)[C@H]1CC[C@@]2(C)[C@@H]3CC[C@H]4C(C)(C)[C@@H](O)CC[C@@]45C[C@@]35CC[C@]12C)C(=O)O
[10]
  IC50: 19 µM

## CCOC(=O)c1sc(-c2ccc([N+](=O)[O-])cc2)nc1COc1ccc(Cl)cc1
[2]
  IC50: 4300 nM

## O=C(O)c1ccccc1-c1ccc(/C=c2/sc3nc4cc(Br)cnc4n3c2=O)o1
[11]
  IC5: 1.1 µM

## Cc1nc(N2CCC3(CC2)CO[C@@H](C)[C@H]3N)c(CO)nc1-c1cccc(Cl)c1Cl
[12]
  IC50: 7 nM
